From US11254668B2, “Pyrazolo[1,5-A]pyrazin-4-yl and related derivatives” (Pfizer Inc., priority 2017, dated 2022)
Like-named read-outs stand apart in the source and are kept apart here.

Tests used:
JAK3 = JAK3 (Homo sapiens (Human), UniProt P52333); test: JAK Caliper Enzyme Assay at 1 mM ATP, JAK3; type: biochemical
Procedure, shortened: (§1)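 Recombinant human kinase domains phosphorylate a fluorescent synthetic peptide at 1 mM ATP, room temperature, with enzyme and time tuned for 20-30% conversion; EDTA-stopped. Product/substrate separated by microfluidic mobility shift; percent effect versus DMSO and positive controls fitted to IC50 (nM).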

[1] = tested on: IL-12 signaling (TYK2 and JAK2), STAT4 phosphorylation; test: Human Whole Blood IL-12 Induced STAT4 Phosphorylation Assay; type: cell-based; conditions: IL-12 5 ng/mL, pSTAT4 in lymphocytes by flow cytometry
Description: Selected compounds were assessed for their ability to inhibit IL-12 signaling in a human whole blood flow cytometry assay. IL-12 signals through TYK2 and JAK2.
Human Whole Blood IL-12 Induced STAT4 Phosphorylation Assay
Test articles were prepared as 30 mM stocks in DMSO. An 11-point 2.5 dilution series was created in DMSO with a top concentration of 10 mM. Further dilution was done by adding 4 μL of the above test article solutions into 96 μL of PBS with a top concentration of 400 μM. Human whole blood was collected from healthy donors via vein puncture into Vacutainer collection tubes containing sodium heparin (Catalog No. 366480; Becton Dickinson, Franklin Lakes, N.J.). Blood was warmed to 37° C. prior to use. Human whole blood was aliquoted ([…]) in 96-well, deep-well, V-bottom plates and treated with compounds at 11 different concentrations (0.2% DMSO final) at 37° C. for 60 minutes. This was followed by a challenge with IL-12 ([…]; final, 5 ng/mL) for 15 minutes. Samples were treated with warm 1× Lyse/Fix buffer ([…]) to terminate activation and further incubated at 37° C. for 20 minutes to lyse red blood cells. Plates were centrifuged at 300×g for 5 minutes, supernatant was aspirated, and cells were washed with […] of staining buffer (PBS containing 0.5% fetal bovine serum and 0.01% sodium azide). The washed cell pellets were resuspended with […] of pre-chilled 90% methanol, and incubated at 4° C. for 30 minutes. Plates were centrifuged at 300×g for 5 minutes, supernatant containing 90% methanol was aspirated, and cells were washed with […] of staining buffer. Cell pellets were resuspended in staining buffer containing anti-pSTAT4-AlexaFluor647 (1 to 150 dilution, […]), and incubated at room temperature in the dark overnight.
Samples were transferred to 96-well U-bottom plates and flow cytometric analysis was performed on a FACSCalibur or LSRFortessa equipped with a HTS plate loader (BD Biosciences). The lymphocyte population was gated for histogram analysis of pSTAT4. Background fluorescence was defined using unstimulated cells and a gate was placed at the foot of the peak to include ˜0.5% gated population. The histogram statistical analysis was performed using CellQuestÔ Pro version 5.2.1 (BD Biosciences) or FACSDiva version 6.2 (BD Biosciences) software. Relative fluorescence unit (RFU), which measures the level of phospho STAT4, was calculated by multiplying the percent positive population and its mean fluorescence. Data from 11 compound concentrations (singlicate at each concentration) was normalized as a percentage of control based on the formula: % of Control=100'(A−B)/(C−B) where A is the RFU from wells containing compound and IL-12, B is the RFU from wells without IL-12 and compound (minimum fluorescence) and C is the RFU from wells containing only IL-12 (maximum fluorescence). Inhibition curves and IC50 values were determined using the Prism version 5 software (GraphPad, La Jolla, Calif.).

JAK1 = JAK1 (Homo sapiens (Human), UniProt P23458); test: JAK Caliper Enzyme Assay at 1 mM ATP, JAK1; type: biochemical
Procedure, shortened: as §1

JAK2 = JAK2 (Homo sapiens (Human), UniProt O60674); test: JAK Caliper Enzyme Assay at 1 mM ATP, JAK2; type: biochemical
Procedure, shortened: (§2)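 Recombinant human kinase domains phosphorylate a fluorescent synthetic peptide at 1 mM ATP and room temperature, with enzyme level and time tuned to 20–30% conversion before an EDTA stop. Microfluidic mobility-shift separation gives percent product from peak heights. Percent effect against plate controls (DMSO baseline) is plotted versus compound concentration.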

TYK2 = TYK2 (Homo sapiens (Human), UniProt P29597); test: JAK Caliper Enzyme Assay at 1 mM ATP, TYK2; type: biochemical
Procedure, shortened: as §2

JAK1, sequence (P23458 875-1153): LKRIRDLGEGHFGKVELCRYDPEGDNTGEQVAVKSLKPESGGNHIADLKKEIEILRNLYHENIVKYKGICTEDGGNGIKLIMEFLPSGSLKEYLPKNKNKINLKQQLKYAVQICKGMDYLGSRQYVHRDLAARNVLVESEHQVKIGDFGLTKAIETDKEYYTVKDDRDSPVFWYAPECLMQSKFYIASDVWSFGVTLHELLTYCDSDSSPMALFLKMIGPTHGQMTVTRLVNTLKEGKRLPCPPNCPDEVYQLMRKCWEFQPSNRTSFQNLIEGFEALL
JAK3, sequence (P52333 822-1111): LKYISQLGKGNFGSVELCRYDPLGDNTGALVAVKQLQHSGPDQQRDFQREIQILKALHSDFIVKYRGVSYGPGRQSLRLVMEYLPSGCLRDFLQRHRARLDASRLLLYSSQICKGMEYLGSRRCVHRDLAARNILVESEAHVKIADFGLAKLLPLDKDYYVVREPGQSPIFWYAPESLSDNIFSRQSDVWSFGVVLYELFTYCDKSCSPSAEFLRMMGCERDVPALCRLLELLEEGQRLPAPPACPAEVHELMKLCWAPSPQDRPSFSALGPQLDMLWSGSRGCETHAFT
JAK2, sequence (O60674 849-1124): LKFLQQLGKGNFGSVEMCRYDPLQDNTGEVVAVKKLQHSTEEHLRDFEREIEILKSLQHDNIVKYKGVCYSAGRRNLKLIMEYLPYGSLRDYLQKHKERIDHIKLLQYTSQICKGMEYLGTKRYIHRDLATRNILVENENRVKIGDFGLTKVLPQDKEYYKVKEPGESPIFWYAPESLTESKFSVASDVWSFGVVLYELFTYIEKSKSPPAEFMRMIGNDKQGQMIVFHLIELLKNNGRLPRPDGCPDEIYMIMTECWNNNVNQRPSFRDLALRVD
TYK2, sequence (P29597 897-1176): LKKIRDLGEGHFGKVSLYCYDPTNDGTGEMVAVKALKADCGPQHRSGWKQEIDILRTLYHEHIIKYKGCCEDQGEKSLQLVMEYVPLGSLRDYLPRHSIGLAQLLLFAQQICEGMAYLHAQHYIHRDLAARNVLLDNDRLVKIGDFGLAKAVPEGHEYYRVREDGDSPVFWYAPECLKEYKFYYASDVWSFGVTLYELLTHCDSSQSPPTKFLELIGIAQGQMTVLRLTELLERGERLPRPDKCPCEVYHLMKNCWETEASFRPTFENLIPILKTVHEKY

| SMILES | IC50 (JAK3) [nM] | IC50 [1] [nM] | IC50 (JAK1) [nM] | IC50 (JAK2) [nM] | IC50 (TYK2) [nM] | IC50 (JAK3; JAK Caliper enzyme assay) [nM] | IC50 (JAK1; JAK Caliper enzyme assay) [nM] | IC50 (JAK2; JAK Caliper enzyme assay) [nM] | IC50 (TYK2; JAK Caliper enzyme assay) [nM] | IC50 ([1]; Lymphocyte) [nM] |
| --- | --- | --- | --- | --- | --- | --- | --- | --- | --- | --- |
| N#CC[C@]1(n2ncc(-c3cc(-c4cn[nH]c4)cc4ncccc34)n2)C[C@H](C#N)C1 [Example 315, trans-3-(cyanomethyl)-3-{4-[7-(1H-pyrazol-4-yl)quinolin-5-yl]-2H-1,2,3-triazol-2-yl}cyclobutanecarbonitrile] | > 10000 | 123 | 524 | 215 | 19 |  |  |  |  |  |
| N#CC[C@H]1C[C@@](CC#N)(n2ccc(-c3nc(-c4cn[nH]c4)cc4ncccc34)n2)C1 [Example 78, 2,2′-(cis-1-{3-[7-(1H-pyrazol-4-yl)-1,6-naphthyridin-5-yl]-1H-pyrazol-1-yl}cyclobutane-1,3-diyl)diacetonitrile] | 8610 | 76 | 172 | 104 | 14 |  |  |  |  |  |
| Cn1cc(-c2cc3ncccc3c(-c3ccn([C@]4(CC#N)C[C@H](C#N)C4)n3)n2)cn1 [Example 103, cis-3-(cyanomethyl)-3-{3-[7-(1-methyl-1H-pyrazol-4-yl)-1,6-naphthyridin-5-yl]-1H-pyrazol-1-yl}cyclobutanecarbonitrile] | 873 | 40 | 55 | 13 | 7 |  |  |  |  |  |
| Cn1cc(-c2cc(-c3cnn([C@]4(CC#N)C[C@H](C#N)C4)c3)n3ccnc3c2)cn1 [Example 458, cis-3-(cyanomethyl)-3-{4-[7-(1-methyl-1H-pyrazol-4-yl)imidazo[1,2-a]pyridin-5-yl]-1H-pyrazol-1-yl}cyclobutanecarbonitrile] |  | 177 |  |  |  | > 10000 | 1680 | 204 | 25 |  |
| N#CCN1CC(CC#N)(n2ccc(-c3nc(-c4cnn(C5COC5)c4)cc4ncccc34)n2)C1 [Example 120, 2,2′-[3-(3-{7-[1-(oxetan-3-yl)-1H-pyrazol-4-yl]-1,6-naphthyridin-5-yl}-1H-pyrazol-1-yl)azetidine-1,3-diyl]diacetonitrile] | 8520 |  | 521 | 28 | 15 |  |  |  |  | 44 |
